Measured values: ChEMBL document CHEMBL1141293, “Cassane furanoditerpenoids from the seed kernels of Caesalpinia bonduc from Thailand” (J Nat Prod, 2007)
Calls of active or inactive are those of the source. The calls are words filed in the database; no cut-off is given here.

Experiments:
SW-620 = experiment: Cytotoxicity against human SW620 cells at 10 ug/ml by MTT assay; type: functional, cell-based
KATO3 = experiment: Cytotoxicity against human KATO3 cells at 10 ug/ml by MTT assay; type: functional, cell-based
CHAGO = experiment: Cytotoxicity against human CHAGO cells at 10 ug/ml by MTT assay; type: functional, cell-based
Plasmodium falciparum [1] = experiment: Antimalarial activity against multidrug-resistant Plasmodium falciparum K1 at 10 uM by microculture radioisotope assay; type: functional, organism-based
HepG2 = experiment: Cytotoxicity against human HepG2 cells at 10 ug/ml by MTT assay; type: functional, cell-based
BT-474 = experiment: Cytotoxicity against human BT474 cells at 10 ug/ml by MTT assay; type: functional, cell-based
Plasmodium falciparum [2] = experiment: Antimalarial activity against multidrug-resistant Plasmodium falciparum K1 by microculture radioisotope assay; type: functional, organism-based

In the case of `CC(=O)O[C@@H]1[C@@H]2[C@H](Cc3occc3[C@@]2(C)O)[C@@]2(C)C(=O)CCC(C)(C)[C@]2(O)[C@H]1OC(C)=O`, the Activity (SW-620) is reported as “Not toxic”, the Activity (KATO3) is reported as “Not toxic” and the Activity (CHAGO) is reported as “Not toxic”. For the same molecule, the Activity (Plasmodium falciparum [1]) was “inactive”, the Activity (HepG2) was “Not toxic” and the Activity (BT-474) was “Not toxic”.

`C[C@H]1[C@@H](O)O[C@@H]2O[C@@]3(C)CC[C@H]4[C@H](C)CC[C@@H]1[C@@]24OO3` [ARTENIMOL] showed an IC50 (Plasmodium falciparum [2]) of 4 nM.

With `COC(=O)[C@@H]1c2ccoc2C[C@H]2[C@H]1[C@@H](OC(C)=O)[C@H](O)[C@@]1(O)C(C)(C)CCC(=O)[C@]21C` [BONDUCELLPIN E] the Activity (SW-620) was “Not toxic”, the IC50 (Plasmodium falciparum [2]) was 1600 nM and the Activity (KATO3) was “Not toxic”. For the same molecule, the Activity (CHAGO) was “Not toxic”, the Activity (HepG2) was “Not toxic” and the Activity (BT-474) was “Not toxic”.

With `C=C1c2ccoc2C[C@H]2[C@H]1[C@@H](OC(C)=O)[C@H](O)[C@@]1(O)C(C)(C)CCC(=O)[C@]21C` [BONDUCELLPIN F] the Activity (SW-620) was “Not toxic”, the IC50 (Plasmodium falciparum [2]) was 5800 nM and the Activity (KATO3) was “Not toxic”. For the same molecule, the Activity (CHAGO) was “Not toxic”, the Activity (HepG2) was “Not toxic” and the Activity (BT-474) was “Not toxic”.

For `C=C1c2ccoc2C[C@H]2[C@H]1[C@@H](O)[C@H](OC(C)=O)[C@@]1(O)C(C)(C)CC[C@H](OC(C)=O)[C@]21C` [BONDUCELLPIN G], the Activity (SW-620) was “Not toxic”, the IC50 (Plasmodium falciparum [2]) was 3800 nM and the Activity (KATO3) was “Not toxic”. For the same molecule, the Activity (CHAGO) was “Not toxic”, the Activity (HepG2) was “Not toxic” and the Activity (BT-474) was “Not toxic”.
